Results: paper PMC2951065 (Journal of Medicinal Chemistry, 2010)
Where a name gives a salt, the structure may show the parent alone.

Assays:
[1] = target: T1, phosphatase domain of PHLPP2 (Homo sapiens, UniProt Q6ZVD8); test: In vitro inhibition of PHLPP2 phosphatase domain, pNPP as substrate; format: biochemical; conditions: for mechanism (type) of inhibition: with respect to pNPP
T1 sequence (Q6ZVD8 785-1033 limits assumed): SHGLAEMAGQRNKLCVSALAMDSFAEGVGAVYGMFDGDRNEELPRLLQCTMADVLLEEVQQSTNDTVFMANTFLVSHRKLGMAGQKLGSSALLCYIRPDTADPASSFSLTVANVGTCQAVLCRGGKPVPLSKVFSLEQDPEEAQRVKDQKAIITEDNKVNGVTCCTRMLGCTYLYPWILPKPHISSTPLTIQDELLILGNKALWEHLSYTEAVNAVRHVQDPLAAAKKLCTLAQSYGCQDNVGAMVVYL

[2] = target: PP1 (Oryctolagus cuniculus, UniProt P62139); test: Selectivity toward other phosphatases: PP1, pNPP; format: biochemical
PP1, sequence (P62139 whole entry): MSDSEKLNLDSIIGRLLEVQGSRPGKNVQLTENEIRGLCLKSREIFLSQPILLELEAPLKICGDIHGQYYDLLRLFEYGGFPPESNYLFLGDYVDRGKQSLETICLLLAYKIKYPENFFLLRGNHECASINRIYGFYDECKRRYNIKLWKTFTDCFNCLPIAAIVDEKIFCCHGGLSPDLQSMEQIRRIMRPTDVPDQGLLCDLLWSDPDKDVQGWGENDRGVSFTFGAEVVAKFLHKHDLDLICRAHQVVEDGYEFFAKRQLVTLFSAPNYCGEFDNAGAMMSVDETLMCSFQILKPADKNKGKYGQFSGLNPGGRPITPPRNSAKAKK

[3] = target: PP2B/calcineurin (Homo sapiens, UniProt Q08209); test: Selectivity toward other phosphatases: PP2B, pNPP; format: biochemical
PP2B/calcineurin, sequence (P63098 whole entry, other chains not shown): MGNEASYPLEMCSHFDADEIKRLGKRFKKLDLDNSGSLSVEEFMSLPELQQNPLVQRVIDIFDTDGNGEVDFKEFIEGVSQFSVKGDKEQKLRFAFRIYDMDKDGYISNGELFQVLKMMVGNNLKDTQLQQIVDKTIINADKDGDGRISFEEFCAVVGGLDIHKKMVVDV

[4] = target: T2, PP2Cα (Homo sapiens, UniProt P35813); test: Selectivity toward other phosphatases: PP2Cα, pNPP; format: biochemical
T2 sequence (P35813 1-382): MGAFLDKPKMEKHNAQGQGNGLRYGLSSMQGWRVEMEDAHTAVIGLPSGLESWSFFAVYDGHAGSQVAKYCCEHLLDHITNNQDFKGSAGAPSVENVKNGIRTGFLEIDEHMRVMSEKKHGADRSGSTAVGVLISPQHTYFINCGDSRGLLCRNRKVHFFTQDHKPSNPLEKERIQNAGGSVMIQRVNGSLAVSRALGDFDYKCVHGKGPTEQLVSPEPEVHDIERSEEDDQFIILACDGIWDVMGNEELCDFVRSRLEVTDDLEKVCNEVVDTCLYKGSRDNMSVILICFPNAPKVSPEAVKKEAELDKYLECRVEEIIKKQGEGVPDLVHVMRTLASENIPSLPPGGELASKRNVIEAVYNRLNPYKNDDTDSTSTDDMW

[5] = system: COS 7 cells; format: cell-based
[6] = system: COS 7 cells; test: Agonist; format: cell-based
[7] = Precipitation in cell culture medium; format: physicochemical
[8] = system: HT29 cells
[9] = system: COS 7 cells; test: Apoptosis assay: etoposide-induced cell death, Trypan Blue exclusion; conditions: for etoposide-induced increase in apoptotic cells: COS 7, 0.1% FBS
[10] = 10-fold higher concentration than 10 μM
[11] = highest concentration tested (100 μM)
[12] = 50 μM pretreatment 30 min, etoposide 24 h

Compound: Nc1c(S(=O)(=O)O)cc(Nc2cccc(S(N)(=O)=O)c2)c2c1C(=O)c1ccccc1C2=O [Compound 1, 1-amino-9,10-dioxo-4-(3-sulfamoylanilino)anthracene-2-sulfonic acid, sodium salt]
- IC50 [1]: 5.45 ± 0.05 µM
- selectivity for PHLPP over the other phosphatases tested ([1]; vs PP1, PP2B, PP2Cα): over an order of magnitude
- mechanism (type) of inhibition [1]: noncompetitive
- IC50 [2]: ~100 µM
- effect on PP1 activity ([2]; 10 μM compound): no significant effect
- inhibition of PP1 [2, 10]: approximately 50%
- effect on PP2B activity ([3]; 10 μM compound): no significant effect
- effect on PP2B activity [3, 11]: neither molecule affected the activity
- IC50 [4]: ~100 µM
- effect on PP2Cα activity ([4]; 10 μM compound): no significant effect
- inhibition of PP2Cα [4, 10]: approximately 50%
- selectivity for Ser473 compared to Thr308 [5]: almost 1 order of magnitude
- increase in the phosphorylation of Ser473 (basal Akt) ([5]; serum-starved COS 7, 35 min): approximately 6 fold
- EGF-evoked increase in p308 phosphorylation ([6]; 50 μM pretreatment, then EGF): approximately 6 fold
- basal phosphorylation at Ser473 compared with DMSO ([6]; 50 μM, 35 min pretreatment, serum-starved COS 7): significantly higher
- concentration at which compound tends to precipitate in the cell culture medium [7]: > 300 µM
- phosphorylation of Akt on Ser 473 ([8]; HT29, 5% FBS, 24 h, 100 or 250 μM): increased Akt phosphorylation and activity in cells
- phosphorylation of downstream substrates GSK3 α/β (Ser21/9) and FoxO1/3α (Thr 24/32); Akt activity ([8]; HT29, 24 h, 100 or 250 μM): corresponding increases
- basal level of apoptotic cells ([9]; 50 μM compound, no etoposide): approximately 12%
- reduction of the magnitude of the etoposide-induced increase in apoptotic cells [9, 12]: approximately 30%
- etoposide-induced increase in apoptotic cells [9, 12]: 2.6 ± 0.3 fold

Compound: NS(=O)(=O)c1ccc(/N=N/c2ncccc2O)cc1 [Compound 7]
- mechanism (type) of inhibition [1]: Competitive

Compound: COc1cc(NCCC2CCCCN2)c2ncccc2c1 (stereo not drawn) [Compound 4]
- mechanism (type) of inhibition [1]: uncompetitive
- toxicity to cells ([8]; HT29, 24 h): induced cells to detach from culture dishes, reflecting toxicity
- phosphorylation of downstream substrates GSK3 α/β (Ser21/9) and FoxO1/3α (Thr 24/32); Akt activity ([8]; HT29, 24 h, 100 or 250 μM): corresponding increases

Compound: Cc1cc(/N=N/c2ccc(/N=N/c3ccc(O)c(C(=O)O)c3)cc2)c(N)cc1N [Compound 13, 1,3-[[4-(2,4-diamino-5-methylphenyl)diazenylphenyl]hydrazinylidene]-6-oxocyclohexa-1,4-diene-1-carboxylic acid]
- mechanism (type) of inhibition [1]: noncompetitive
- IC50 [2]: ~100 µM
- effect on PP2B activity [3, 11]: neither molecule affected the activity
- IC50 [4]: ~100 µM
- modulation of Ser473 phosphorylation ([5]; cells grown in serum, data not shown): considerably less effective
- increase in the phosphorylation of Ser473 (basal Akt) ([5]; serum-starved COS 7, 35 min): approximately 4 fold
- sensitivity of phosphorylation of Akt on Thr308 compared with Ser473 ([5]; serum-starved COS 7, 35 min): not significantly different
- effect on etoposide-induced increase in apoptotic cells [9, 12]: essentially abolished

Compound: COc1cc([C@@H]2c3cc4c(cc3[C@@H](O[C@@H]3O[C@@H]5CO[C@@H](C)O[C@H]5[C@H](O)[C@H]3O)[C@H]3COC(=O)[C@H]23)OCO4)cc(OC)c1O [Etoposide, etoposide, reference compound]
- etoposide-induced increase in apoptotic cells [9, 12]: 3.4 ± 0.4 fold

Compound: COc1ccc2nc3cc(Cl)ccc3c(Nc3ccc(C(=O)O)cc3)c2c1 [Compound 24]
- phosphorylation of downstream substrates GSK3 α/β (Ser21/9) and FoxO1/3α (Thr 24/32); Akt activity ([8]; HT29, 24 h, 100 or 250 μM): corresponding increases

Compound: COc1ccc(NCc2c(O)ccc3ccccc23)cc1 [Compound 2]
- mechanism (type) of inhibition [1]: Noncompetitive
